According to patent publication EP4640688A1, “AVERMECTIN DERIVATIVE” (Meiji Seika Pharma Co., Ltd., priority 2022, dated 2024):

Test system: SARS-CoV-2
Format: cell-based
Details: concentration reducing replication to 50% vs control, read-out: Antiviral activity

Row | SMILES | IC50 [µM]
1 | CCC(C)C1OC2(CCC1C)CC1CC(CC=C(C)C(OC3CC(OC)C(OC4CC(OC)C(O)C(C)O4)C(C)O3)C(C)C=CC=C3COC4C(=NO)C(C)CC(C(=O)O1)C34O)O2 (centres unmarked) [Compound I-1] | < 1
2 | CCC(C)C1OC2(CCC1C)CC1CC(CC=C(C)C(OC3CC(OC)C(OC4CC(OC)C(O)C(C)O4)C(C)O3)C(C)C=CC=C3COC4C(=NOCC(=O)NC)C(C)=CC(C(=O)O1)C34O)O2 (centres unmarked) [Compound I-124] | < 1
